28 molecules from patent US20140073634A1 (Institute For Applied Cancer Science/The University of …, priority 2012, published 2014) can be followed below.

Where only a bound is given, the exact number is not on record here.

For the experiment, the system named is 293T-HRE-GFP-luc cells. As to the kind of experiment: Cell-based reporter assay for IC50 determinations (HRE-luciferase, hypoxia). The following applies: 6 hrs hypoxia (1% O2), luminescence. The protocol:
Cell-Based Reporter Assay for IC50 Determinations
293T-HRE-GFP-luc cells were routinely maintained in DMEM media (high glucose version with GlutaMAX and HEPES, Gibco, catalog #10564) supplemented with 10% fetal bovine serum and 2 μg/mL puromycin (Invitrogen, catalog #A11138-03) using a humidified incubator (normoxia conditions consisting of 37° C., 5% CO2 and ambient O2).
In preparation for the reporter assay, cells were harvested and resuspended in DMEM media (high glucose version with GlutaMAX and HEPES) supplemented with 10% fetal bovine serum. Cells were inoculated into 384-well white Culturplates (Perkin Elmer catalog #6007680) at a density of 12,000 cells/well in a volume of […]. The microplates were incubated overnight (approximately 17-19 hours) at 37° C. with 5% CO2 and ambient O2. Stock solutions of the test compounds were prepared in DMSO (Sigma, Catalog #D2650) and serially diluted 1:3 using DMSO. Compounds were additionally diluted (1:50) with culturemedium and 10 µL were added per well to the Culturplate. Following a 30 min. incubation under normoxia conditions, the plates were incubated in hypoxia for 6 hrs. (37° C., 5% CO2 and 1% O2). Steadylite Plus (Perkin Elmer, catalog #6016751) was then added ([…]), the plates were mixed on an orbital shaker at room temperature in the dark for 15 min., and luminescence was measured using an Envision plate reader (Perkin Elmer). IC50 values were calculated using a four-parameter logistic curve fit. Results are shown below in Table 2; ND indicates no data.

In the case of `COCCOc1cccc(Cn2cc(-c3noc(-c4ccc(C(C)(C)OC)cc4)n3)ccc2=O)c1` [Example 81, 1-(3-(2-Methoxyethoxy)benzyl)-5-(5-(4-(2-methoxypropan-2-yl)phenyl)-1,2,4-oxadiazol-3-yl)pyridin-2(1H)-one], the IC50 (6 h) is < 100 nM. Still for that read-out and setting: in the case of `O=c1ccc(-c2nc(-c3ccc(OC(F)(F)F)cc3)no2)cn1Cc1cccc(N2CCCC2)c1` [Example 31, 1-{[3-(Pyrrolidin-1-yl)phenyl]methyl}-5-{3-[4-(trifluoromethoxy)phenyl]-1,2,4-oxadiazol-5-yl}-1,2-dihydropyridin-2-one] it was < 100 nM; in that of `CCCS(=O)(=O)c1cccc(Cn2cc(-c3nc(-c4ccc(OC(F)(F)F)cc4)no3)ccc2=O)c1` [Example 37, 1-{[3-(propane-1-sulfonyl)phenyl]methyl}-5-{3-[4-(trifluoromethoxy)phenyl]-1,2,4-oxadiazol-5-yl}-1,2-dihydropyridin-2-one], < 100 nM. With `CCOC(=O)CN1CCN(c2cccc(Cn3cc(-c4nc(-c5ccc(OC(F)(F)F)cc5)no4)ccc3=O)c2)CC1=O` [Example 183, ethyl 2-(2-oxo-4-{3-[(2-oxo-5-{3-[4-(trifluoromethoxy)phenyl]-1,2,4-oxadiazol-5-yl}-1,2-dihydropyridin-1-yl)methyl]phenyl}piperazin-1-yl)acetate], the IC50 (6 h) was < 100 nM. The same measure, in the same setting: to `O=c1ccc(-c2nc(-c3ccc(OC(F)(F)F)cc3)no2)cn1Cc1ccnc(N2CCCC2)c1` [Example 159, 1-{[2-(pyrrolidin-1-yl)pyridin-4-yl]methyl}-5-{3-[4-(trifluoromethoxy)phenyl]-1,2,4-oxadiazol-5-yl}-1,2-dihydropyridin-2-one] belongs < 100 nM.

For `CN1CCN(c2cc(Cn3nc(-c4nc(-c5ccc(OC(F)(F)F)cc5)no4)ccc3=O)ccn2)CC1` [Example 2], the IC50 (6 h) was < 100 nM. Same read-out and setting: in the case of `COCCOc1cccc(Cn2cc(-c3noc(-c4ccc(S(=O)(=O)CC#N)cc4)n3)ccc2=O)c1` [Example 85, 2-(4-(3-(1-(3-(2-Methoxyethoxy)benzyl)-6-oxo-1,6-dihydropyridin-3-yl)-1,2,4-oxadiazol-5-yl)phenylsulfonyl)acetonitrile] it was 100 to 1000 nM; in that of `CN(C)C(=O)CCc1cccc(Cn2cc(-c3nc(-c4ccc(OC(F)(F)F)cc4)no3)ccc2=O)c1` [Example 49, N,N-Dimethyl-3-{3-[(2-oxo-5-{3-[4-(trifluoromethoxy)phenyl]-1,2,4-oxadiazol-5-yl}-1,2-dihydropyridin-1-yl)methyl]phenyl}propanamide], < 100 nM; in that of `COCCOc1cccc(Cn2cc(-c3noc(-c4ccc(S(C)(=O)=O)cc4)n3)ccc2=O)c1` [Example 202, 5-[5-(4-methanesulfonylphenyl)-1,2,4-oxadiazol-3-yl]-1-{[3-(2-methoxyethoxy)phenyl]methyl}-1,2-dihydropyridin-2-one], 100 to 1000 nM. With `CC(C)Oc1ccc(-c2nc(-c3ccc(=O)n(Cc4cccc(OCCCS(C)(=O)=O)c4)c3)no2)cc1` [Example 206, 1-{[3-(3-methanesulfonylpropoxy)phenyl]methyl}-5-{5-[4-(propan-2-yloxy)phenyl]-1,2,4-oxadiazol-3-yl}-1,2-dihydropyridin-2-one], for the setting “6 h”, the IC50 is < 100 nM. In the case of `NC(=O)c1cccc(Cn2nc(-c3nc(-c4ccc(OC(F)(F)F)cc4)no3)ccc2=O)c1` [Example 132, 3-[(6-oxo-3-{3-[4-(trifluoromethoxy)phenyl]-1,2,4-oxadiazol-5-yl}-1,6-dihydropyridazin-1-yl)methyl]benzamide], for the setting “6 h”, the IC50 is < 100 nM. Consider `CN1CCN(c2cc(Cn3cc(-c4nc(-c5ccc(OC(F)(F)F)cc5)no4)ccc3=O)ccc2F)CC1` [Example 137, 1-{[4-fluoro-3-(4-methylpiperazin-1-yl)phenyl]methyl}-5-{3-[4-(trifluoromethoxy)phenyl]-1,2,4-oxadiazol-5-yl}-1,2-dihydropyridin-2-one], for which, for the setting “6 h”, the IC50 was < 100 nM. Regarding `COCCOc1cccc(Cn2cc(-c3noc(-c4cnc(N5CCS(=O)(=O)CC5)nc4)n3)ccc2=O)c1` [Example 250, 5-(5-(2-(1,1-dioxidothiomorpholino)pyrimidin-5-yl)-1,2,4-oxadiazol-3-yl)-1-(3-(2-methoxyethoxy)benzyl)pyridin-2(1H)-one], the IC50 (6 h) fell in the range of 100 to 1000 nM. The same measure, in the same setting: to `CN1CCN(c2cc(Cn3cc(-c4nc(-c5ccc(OC(F)(F)F)cc5)no4)ccc3=O)ccn2)CC1=O` [Example 176, 1-methyl-4-{4-[(2-oxo-5-{3-[4-(trifluoromethoxy)phenyl]-1,2,4-oxadiazol-5-yl}-1,2-dihydropyridin-1-yl)methyl]pyridin-2-yl}piperazin-2-one] belongs < 100 nM. In the case of `CN1CCN(c2cccc(Cn3cc(-c4ncc(-c5ccc(OC(F)(F)F)cc5)o4)ccc3=O)c2)CC1` [Example 91, 1-(3-(4-Methylpiperazin-1-yl)benzyl)-5-(5-(4-(trifluoromethoxy)phenyl)oxazol-2-yl)pyridin-2(1H)-one], the IC50 was < 100 nM. With `COCCOc1cccc(Cn2cc(-c3noc(-c4ccc(C(=O)N5CCCC5)cc4)n3)ccc2=O)c1` [Example 219, 1-{[3-(2-methoxyethoxy)phenyl]methyl}-5-{5-[4-(pyrrolidine-1-carbonyl)phenyl]-1,2,4-oxadiazol-3-yl}-1,2-dihydropyridin-2-one], the IC50 (6 h) lay within 100 to 1000 nM. As to `O=c1ccc(-c2nc(-c3ccc(OC(F)(F)F)cc3)no2)cn1Cc1cccc(N2CCCS2(=O)=O)c1` [Example 168, 1-(3-(1,1-dioxidoisothiazolidin-2-yl)benzyl)-5-(3-(4-(trifluoromethoxy)phenyl)-1,2,4-oxadiazol-5-yl)pyridin-2(1H)-one], the IC50 (6 h) is < 100 nM. As to `O=c1ccc(-c2nc(-c3ccc(OC(F)(F)F)cc3)no2)cn1Cc1ccc(F)c(Br)c1` [Example 135, 1-[(3-bromo-4-fluorophenyl)methyl]-5-{3-[4-(trifluoromethoxy)phenyl]-1,2,4-oxadiazol-5-yl}-1,2-dihydropyridin-2-one], the IC50 (6 h) was in the range of 100 to 1000 nM.

`Cc1ccc(-c2nnc(-c3ccc(OC(F)(F)F)cc3)o2)c(=O)n1Cc1ccnc(N2CCC(C#N)CC2)c1` [Example 28, 1-(4-((6-Methyl-2-oxo-3-(5-(4-(trifluoromethoxy)phenyl)-1,3,4-oxadiazol-2-yl)pyridin-1(2H)-yl)methyl)pyridin-2-yl)piperidine-4-carbonitrile] showed an IC50 (6 h) of 100 to 1000 nM.

Where the note is “6 h”, `CN1CCN(C(=O)c2cc(Cn3nc(-c4nc(-c5ccc(OC(F)(F)F)cc5)no4)ccc3=O)ccn2)CC1` [Example 125, 2-((2-(4-methylpiperazine-1-carbonyl)pyridin-4-yl)methyl)-6-(3-(4-(trifluoromethoxy)phenyl)-1,2,4-oxadiazol-5-yl)pyridazin-3(2H)-one] came in with an IC50 of 1000 to 10000 nM.

On to `O=c1ccc(-c2nc(-c3ccc(OC(F)(F)F)cc3)no2)nn1Cc1ccc(F)c(N2CCOCC2)c1` [Example 111, 2-(4-fluoro-3-morpholinobenzyl)-6-(3-(4-(trifluoromethoxy)phenyl)-1,2,4-oxadiazol-5-yl)pyridazin-3(2H)-one], for which the IC50 (6 h) is < 100 nM. Still for that read-out and setting: in the case of `COCCOc1cccc(Cn2cc(-c3nc(-c4ccc(OC(F)(F)F)cc4)no3)ccc2=O)c1` [Example 33, 1-{[3-(2-Methoxyethoxy)phenyl]methyl}-5-{3-[4-(trifluoromethoxy)phenyl]-1,2,4-oxadiazol-5-yl}-1,2-dihydropyridin-2-one] it was 100 to 1000 nM; in that of `COCCOc1cccc(Cn2cc(-c3noc(-c4cnc(NCC(C)C)nc4)n3)ccc2=O)c1` [Example 246], < 100 nM; in that of `COCCOc1cccc(Cn2cc(-c3noc(-c4ccc(S(=O)(=O)C(F)F)cc4)n3)ccc2=O)c1` [Example 221, 5-[5-(4-difluoromethanesulfonylphenyl)-1,2,4-oxadiazol-3-yl]-1-{[3-(2-methoxyethoxy)phenyl]methyl}-1,2-dihydropyridin-2-one], < 100 nM. On the same count and under the same terms, to `COCCOc1cccc(Cn2cc(-c3noc(-c4ccc(N5CCOCC5)cc4)n3)ccc2=O)c1` [Example 200, 1-{[3-(2-methoxyethoxy)phenyl]methyl}-5-{5-[4-(morpholin-4-yl)phenyl]-1,2,4-oxadiazol-3-yl}-1,2-dihydropyridin-2-one] belongs < 100 nM; to `CN1CCN(c2cccc(Cn3cc(-c4nc(-c5ccc(SC(F)(F)F)cc5)no4)ccc3=O)c2)CC1` [Example 185, 1-{[3-(4-methylpiperazin-1-yl)phenyl]methyl}-5-(3-{4-[(trifluoromethyl)sulfanyl]phenyl}-oxadiazol-5-yl)-1,2-dihydropyridin-2-one], < 100 nM; to `CS(=O)(=O)C1CCN(c2cccc(Cn3cc(-c4nc(-c5ccc(OC(F)(F)F)cc5)no4)ccc3=O)c2)CC1` [Example 41, 1-{[3-(4-Methanesulfonylpiperidin-1-yl)phenyl]methyl}-5-{3-[4-(trifluoromethoxy)phenyl]-1,2,4-oxadiazol-5-yl}-1,2-dihydropyridin-2-one], < 100 nM.

With `CC(C)(O)c1cccc(Cn2cc(-c3nc(-c4ccc(OC(F)(F)F)cc4)no3)ccc2=O)c1` [Example 39, 1-{[3-(2-Hydroxypropan-2-yl)phenyl]methyl}-5-{3-[4-(trifluoromethoxy)phenyl]-1,2,4-oxadiazol-5-yl}-1,2-dihydropyridin-2-one], the IC50 (6 h) is < 100 nM.
